Blank lines part the entries; values can stand above or below the molecule they belong to.
Assays:
Type in all cases: cell-based, Human
[1] = tested on: ARE sequence of the glutathione S-transferase Ya gene (SEQ ID NO: 5); experiment: Luciferase reporter assay, 3xARE/RBGP-Luc (ARE of SEQ ID NO: 5) in HepG2; conditions: HepG2, FIG. 4
Description: (§1) Then, 3 copies (Mol. Cell. Biol., 14, 700-712 (1994)) of various oligonucleotides (32-mers) containing the MARE sequences of SEQ ID NO: 1 through 7, comparative or control MARE sequences (SEQ ID NO: 1-4, 6 and 7), and an ARE sequence (SEQ ID NO: 5) were respectively inserted into the XhoI site of pUC118 vector with a modified poly-linker sequence. Further, the portion containing the 3 repeats of MARE sequence was excised at KpnI/BamHI site and inserted into the KpnI/BamHI site of pRBGP3. As an example of the above 32mer sequence, the one containing MARE of SEQ ID NO: 2 is shown in SEQ ID NO: 20. Here, tcgag represents the XhoI site.
(§2) Thus obtained were 3xMARE/RBGP-Luc and 3xARE/RBGP-Luc plasmids containing 3 repeats of 32 oligonucleotide sequences containing the 13 oligonucleotides shown in SEQ ID NO: 1 through 7 (MARE sequences, ARE sequences, and the corresponding comparative and control sequences). SEQ ID NO: 21 is an example of the sequence contained in the resulting 3xMARE/RBGP-Luc using SEQ ID NO: 2 as MARE. The obtained recombinant expression vectors were used for subsequent transfections.
(§3) Transfections were carried out using SUPERFECT Transfection Reagent (Qiagen) according to the protocol accompanying the reagent. Human hepatocellular calcinoma cell line HepG2 was subcultured on a 35 mm plate and, after 24 hours, the transfection was carried out. Thus, a transfection solution containing 100 μl of a vector solution containing 0.25 μg of the above plasmid, 100 μl of SUPERFECT transfection reagent, and 600 μl of DMEM serum-free medium were added to a PBS-washed cell plate. After 2 hours of incubation at 37° C., the medium was changed to 10% FCS-supplemented DMEM. After 2 hours, stimulating reagents containing various heavy metal compounds inclusive of auranofin; Ridaura™, product of Sigma; 2,3,4,6-tetra-O-acetyl-1-thio-β-D-glucopyranosato-S) (triethylphosphine)gold were added and the culture was continued. The luciferase activity in the cells was assayed 15-18 hours later.
(§4) The assay of luciferase activity was carried out using Dual-Luciferase Reporter Assay System (product of Promega) according to the manufacture's protocol.
(§5) To the culture plate was added 100 μl of the cytolytic buffer included in the […] kit to lyse the cells, and using a bench-top centrifuge, the lysate was centrifuged at 15,000 rpm for 5 seconds. The supernatant, 20 μl, of the lysate was mixed with 100 μl of the attached reagent LARII and the first chemiluminescence was measured with a luminometer. Then, 100 μl of the stopper (Stop & Glo Reagent) was added and the second chemniluminescence was measured.
(§6) The ratio of the first and second chemiluminescences was determined to calculate luciferase activity.
The results are shown in FIG. 4 similar to FIG. 1 (the abbreviations of reagents added are the same as above; each luciferase activity ratio was calculated with the control value found by culture of the vector in the absence of the test reagent being taken as 1).

5xkB (IL2R-a) kB element = experiment: Luciferase reporter assay, positive control 5xkB (IL2R-a) in HepG2; conditions: 5 μM auranofin vs absence, 18 hours, HepG2, FIG. 3
Procedure: as §3, with “After 2 hours, stimulating reagents containing various heavy metal compounds inclusive of auranofin; Ridaura™, product of Sigma; 2,3,4,6-tetra-O-acetyl-1-thio-β-D-glucopyranosato-S) (triethylphosphine)gold were added and the culture was continued. The luciferase activity in the cells was assayed 15-18 hours later.” left out
as §5
(§7) The ratio of the first and second chemiluminescences was determined to calculate luciferase activity. […]
(§8) Each of the above vectors was cultured by the above procedure (b) for 18 hours in the presence of 5 μM auranofin or in the absence thereof and the luciferase activity was measured by the above procedure (c). […]

[2] = tested on: MARE sequence of SEQ ID NO: 4; experiment: Luciferase reporter assay, 3xMARE/RBGP-Luc (MARE of SEQ ID NO: 4) in HepG2; conditions: 5 μM auranofin vs absence, 18 hours, HepG2, FIG. 3
Description: as §1, with “site. […]” for “site.”
as §5, §7

[3] = tested on: control MARE of SEQ ID No: 6; experiment: Luciferase reporter assay, control MARE of SEQ ID NO: 6 in HepG2; conditions: 5 μM auranofin vs absence, 18 hours, HepG2, FIG. 3
Description: as §1, with “site. […]” for “site.”
as §5, §7

[4] = tested on: 5xSRE (c-fos) serum response element; experiment: Luciferase reporter assay, positive control 5xSRE (c-fos) in HepG2; conditions: 5 μM auranofin vs absence, 18 hours, HepG2, FIG. 3
Procedure: as §3, with “After 2 hours, stimulating reagents containing various heavy metal compounds inclusive of auranofin; Ridaura™, product of Sigma; 2,3,4,6-tetra-O-acetyl-1-thio-β-D-glucopyranosato-S) (triethylphosphine)gold were added and the culture was continued. The luciferase activity in the cells was assayed 15-18 hours later.” left out
as §5, §7, §8

[5] = tested on: MARE sequence of SEQ ID NO: 1; experiment: Luciferase reporter assay, 3xMARE/RBGP-Luc (MARE of SEQ ID NO: 1) in HepG2; conditions: 5 μM auranofin vs absence, 18 hours, HepG2, FIG. 3
Description: as §1, with “site. […]” for “site.”
as §5, §7

[6] = tested on: MARE sequence of SEQ ID NO: 3; experiment: Luciferase reporter assay, 3xMARE/RBGP-Luc (MARE of SEQ ID NO: 3) in HepG2; conditions: 5 μM auranofin vs absence, 18 hours, HepG2, FIG. 3
Description: as §1, with “site. […]” for “site.”
as §5, §7

[7] = tested on: AP-1 (activator protein-1) element of SEQ ID NO: 7; experiment: Luciferase reporter assay, AP-1 element of SEQ ID NO: 7 in HepG2; conditions: 5 μM auranofin vs absence, 18 hours, HepG2, FIG. 3
Description: as §1, with “site. […]” for “site.”
as §5, §7

[8] = tested on: MARE sequence of SEQ ID NO: 2; experiment: Luciferase reporter assay, 3xMARE/RBGP-Luc (MARE of SEQ ID NO: 2) transfected into HepG2
Description: (a) Construction of a Recombinant Vector
As the basal skeleton of the recombinant vector, pGL2-Basic (product of Promega) was used. This vector is a luciferse expression vector.
The SV40 promoter of the above pGL2-Basic was substituted with oligonucleotides (SEQ ID NO: 8 and NO: 9, 41-mer each) containing the TATA sequence of rabbit β-globin promoter at Bgl II/Hind III site to construct pRBGP3 (Nature, 367, 568-572 (1994)).
as §1, §2, §3, §4, §5, §6
The recombinant expression vector (reporter plasmid) ligated with the MARE sequence of SEQ ID NO: 2 as constructed under (a) above, namely 3xMARE/RBGP-Luc, was used. Stimulating reagents containing various heavy metal compounds, namely 100 μM each of manganese chloride (MnCl2), cobalt chloride (CoCl2), nickel chloride (NiCl2), copper sulfate (CuSO4), zinc sulfate (ZnSO4), cadmium sulfate (CdSO4), mercury chloride (HgCl2) and sodium tetrachloroaurate(III) (Na(AuCl4)) and 5 μM of auranofin, were respectively added and the cells were cultured by the above procedure (b) for 18 hours. Then, luciferase activity was measured by the procedure described under (c) above. […]

[9] = 100 μM heavy metal compound, 18 hours, HepG2, control taken as 1, FIG. 1

activity ratio (luciferase activity ratio, control taken as 1) ([1]; 500 μM): 21.7±15.4
Structure (SMILES): OC[C@H]1O[C@H]([S-])[C@H](O)[C@@H](O)[C@@H]1O.[Au+] [AuTG, (1-thio-D-glucopyranosato)gold]

Structure (SMILES): O=C([O-])CC([S-])C(=O)[O-].[Au+].[Na+].[Na+] (centres unmarked) [AuTM, sodium aurothiomalate]
activity ratio (luciferase activity ratio, control taken as 1) ([1]; 100 μM): 8.1±0.4

Structure (SMILES): CC[PH](CC)(CC)[Au][S][C@@H]1O[C@H](COC(C)=O)[C@@H](OC(C)=O)[C@H](OC(C)=O)[C@H]1OC(C)=O [auranofin, (2,3,4,6-tetra-O-acetyl-1-thio-β-D-glucopyranosato-S)(triethylphosphine)gold]
action on the reporter (luciferase activity ratio) (5xkB (IL2R-a) kB element): does not act on
transcription activity ratio (luciferase activity ratio) [2]: 112.9
action on the reporter (luciferase activity ratio) [3]: does not act on
action on the reporter (luciferase activity ratio) [4]: does not act on
transcription activity ratio (luciferase activity ratio) [5]: 53.3
transcription activity ratio (luciferase activity ratio) [6]: 30.8
action on the reporter (luciferase activity ratio) [7]: does not act on
transcription activity ratio (luciferase activity ratio) ([8]; 5 μM auranofin vs absence, 18 hours, HepG2, FIG. 3, study (3)): 158.7
luciferase activity in multiples of untreated control (Fold Activation) ([8]; 5 μM auranofin, 18 hours, HepG2, control taken as 1, FIG. 1, study (1)): 142.4 times
dose dependence of MARE activation (luciferase activity ratio, Fold Activation) ([8]; AUR 0.5-20 μM, AuTG 20-500 μM, AuTM 10-500 μM, HepG2, FIG. 2): outstanding luciferase activation compared with the other two kinds of gold compounds
activity ratio (luciferase activity ratio, control taken as 1) ([1]; 5 μM): 102.9±53.4
activity relative to that of tBHQ ([1]; AUR 5 μM vs tBHQ 60 μM): about 30 times

Structure (SMILES): O=S(=O)([O-])[O-].[Cd+2] [cadmium sulfate]
luciferase activity in multiples of untreated control (Fold Activation) [8, 9]: 27.3

Structure (SMILES): [Cl][Co][Cl] [cobalt chloride]
luciferase activity in multiples of untreated control (Fold Activation) [8, 9]: 6.9

Structure (SMILES): [Cl][Hg][Cl] [mercury chloride]
luciferase activity in multiples of untreated control (Fold Activation) [8, 9]: 10

Structure (SMILES): [Cl][Au-]([Cl])([Cl])[Cl].[Na+] [sodium tetrachloroaurate(III)]
luciferase activity in multiples of untreated control (Fold Activation) [8, 9]: 4.3

Structure (SMILES): CC(C)(C)c1cc(O)c(C(C)(C)C)cc1O [tBHQ, 2,5-di-tert-butylhydroquinone]
activity ratio (luciferase activity ratio, control taken as 1) ([1]; 60 μM): 6.0±3.8

Structure (SMILES): O=C(O)CC(S)C(=O)O (centres unmarked) [thiomalate]
activity ratio (luciferase activity ratio, control taken as 1) ([1]; 100 μM): 2.1±0.6
